Results published in patent US4929601A, “Tripeptides useful as immunostimulants as well as in the prevention of metastases” (Ellem Industria Farmaceutica, S.p.A., priority 1987, dated 1990).

Legend:
Type in all cases: cell-based
[1] = system: pure human T lymphocytes, without macrophages; assay: Lymphokine production by pure human T lymphocytes without macrophages (+IL-1): BCGF activity
Description: (§1) The supernatants have been collected, filtered (0.2 μm) and assayed for the presence of IL-2 or BCGF activity, by adding them at different concentrations to fresh T lymphocytes or to long term cultured B cells. The proliferating activity of these cells, dependent on the presence of the respective growth factor, has been evaluated through 3H-thymidine incorporation.
(§2) The lymphokine production by human T lymphocytes purified through […] on nylon wool column has been evaluated with the same methods as in the previous experiment.
(§3) In order to obviate the lack of macrophages, recombinant IL-1 β (Genzyme) has been added at the concentration of 25 Units/ml.

[2] = system: Human T lymphocytes; assay: Stimulation of lymphokine production in vitro: TCGF (IL-2) activity of supernatants
Experimental: Human T lymphocytes have been incubated with PHA and with or without the peptides under examination for 24 hours (in the case of IL-2) or 72 hours (in the case of BCGF).
as §1

[3] = system: spleen cells of normal mice; assay: Induction of Thy 1.2 antigen in spleen cells of normal mice
Description: The capacity of the tripeptide Arg-Gly-Asp to induce in vitro the differentiation of T cell precursors into lymphocytes expressing T cell markers has been tested by evidencing the induction of Thy 1.2 membrane antigen.
Spleen cells of normal mice have been used as source of "null" cells.
Mice were killed by cervical dislocation.
Spleens were aseptically removed and finely minced with forceps in Hank's balanced salt solution (HBSS) (Gibco Ltd, Paisley, Scotland). A suspension of single cells was obtained through filtration on a fine mesh wire sieve. Mononuclear cells (MNC) have been isolated through differential centrifugation on Lymphoprep (Nyegaard, Oslo, Norway) with continuous density gradient for 20 minutes at 450 g.
After 3 washes in HBSS, MNC were suspended at a concentration of 5×10^6 cells/ml in 199 medium (Gibco Ltd) supplemented with 1% BSA (Cohn Fr. V. Sigma, St. Louis), L-glutamine 2 mM and 10 mcg/ml of gentamycin sulfate (Schering, Klworth, N.J., U.S.A.) (TC 199-BSA). The cells have been used when their viability was over 95% at the Trypan Blue exclusion test.
Two hundred μl of the spleen MNC suspension have been mixed with the same volume of the tripeptide opportunely diluted with TC 199-BSA medium. The control cells have only been treated with the medium TC 199-BSA. […] containing 5% CO2, then washed twice with HBSS containing 5% heat-inactivated neonatal calf serum (Gibco) (HBSSS-CS) and finally resuspended in the same medium at a concentration of 10^6 cells/ml.
The expression of Thy 1.2 antigen was analyzed by IF using and anti-Thy 1.2 monoclonal antibody conjugated with fluorescein (Bio-Yeda, supplied by Technogenetics, S. Mauro Torinese, Italy) at the concentration of 2 mcg/10^6 cells. The cells have been incubated with the antibody for 30 minutes at 4° C.
After three washes in HBSS, the cells have been resuspended in the same medium and observed with a Leitz Orthomat microscope equipped with epiillumination.
At least 300 cells have been counted in each evaluation.

[4] = system: Human T lymphocytes; assay: Effect on cell cycle (propidium iodide, flow cytometer); conditions: 1 μg/ml, 72 hours with PHA
Experimental: Human T lymphocytes have been incubated for 72 hours in presence of PHA and the tripeptides under examination (1 μg/ml). DNA has then been stained with propidium iodide and cells have been analyzed with a flow cytometer.

[5] = system: pure human T lymphocytes, without macrophages; assay: Lymphokine production by pure human T lymphocytes without macrophages (+IL-1): TCGF activity
Description: as §1, §2, §3

[6] = system: PHA-stimulated human T lymphocytes; assay: RNA synthesis in PHA-stimulated human T lymphocytes in vitro (3H-uridine); conditions: for RNA synthesis, 3H-uridine c.p.m. (mean): control 3835
Experimental: Human T lymphocytes, incubated in vitro for 24 hours in presence of 0.5% phytohemagglutinin (PHA) and different concentrations of the tripeptides under examination, have been analyzed for RNA synthesis (cell activation) by means of 3H-uridine labelling.

[7] = 1 mcg/ml, 3.125% of supernatant
[8] = 10 mcg/ml, 3.125% of supernatant
[9] = 10 mcg/ml, 6.25% of supernatant
[10] = 10 mcg/ml, 12.5% of supernatant

N=C(N)NCCC[C@H](N)C(=O)NCC(=O)N[C@@H](CC(=O)O)C(=O)O [ARG--GLY--ASP, L-Arginyl-glycyl-L-aspartic acid]
BCGF activity Δ % [1, 7]: +94% | BCGF ACTIVITY c.p.m. ([1]; 1 mcg/ml, 3.125% of supernatant, T + PHA + IL-1 318): 618 c.p.m. | BCGF activity Δ % ([1]; 1 mcg/ml, 6.25% of supernatant): +9% | BCGF ACTIVITY c.p.m. ([1]; 1 mcg/ml, 6.25% of supernatant, T + PHA + IL-1 582): 634 c.p.m. | BCGF activity Δ % ([1]; 1 mcg/ml, 12.5% of supernatant): +141% | BCGF ACTIVITY c.p.m. ([1]; 1 mcg/ml, 12.5% of supernatant, T + PHA + IL-1 1104): 2663 c.p.m. | BCGF activity Δ % ([1]; 1 mcg/ml, 25% of supernatant): +106% | BCGF ACTIVITY c.p.m. ([1]; 1 mcg/ml, 25% of supernatant, T + PHA + IL-1 2507): 5172 c.p.m. | BCGF activity Δ % ([1]; 1 mcg/ml, 50% of supernatant): +95% | BCGF ACTIVITY c.p.m. ([1]; 1 mcg/ml, 50% of supernatant, T + PHA + IL-1 5056): 9837 c.p.m. | BCGF activity Δ % [1, 8]: +147% | BCGF ACTIVITY c.p.m. ([1]; 10 mcg/ml, 3.125% of supernatant, T + PHA + IL-1 318): 784 c.p.m. | BCGF activity Δ % [1, 9]: +49% | BCGF ACTIVITY c.p.m. ([1]; 10 mcg/ml, 6.25% of supernatant, T + PHA + IL-1 582): 866 c.p.m. | BCGF activity Δ % [1, 10]: +171% | BCGF ACTIVITY c.p.m. ([1]; 10 mcg/ml, 12.5% of supernatant, T + PHA + IL-1 1104): 2997 c.p.m. | BCGF activity Δ % ([1]; 10 mcg/ml, 25% of supernatant): +173% | BCGF ACTIVITY c.p.m. ([1]; 10 mcg/ml, 25% of supernatant, T + PHA + IL-1 2507): 6849 c.p.m. | BCGF activity Δ % ([1]; 10 mcg/ml, 50% of supernatant): +125% | BCGF ACTIVITY c.p.m. ([1]; 10 mcg/ml, 50% of supernatant, T + PHA + IL-1 5056): 11364 c.p.m. | effect on lymphokine production by pure T lymphocytes ([1]; both for IL-2 and BCGF, IL-1 β 25 Units/ml): comparable with that of the other reference compounds | TCGF activity Δ % ([2]; 3.125% of supernatant): +107% | TCGF ACTIVITY (mean) ([2]; 3.125% of supernatant, T + PHA 1564): 3245 COUNTS PER MINUTE | TCGF activity Δ % ([2]; 6.25% of supernatant): +224% | TCGF ACTIVITY (mean) ([2]; 6.25% of supernatant, T + PHA 2622): 8496 COUNTS PER MINUTE | TCGF activity Δ % ([2]; 12.5% of supernatant): +227% | TCGF ACTIVITY (mean) ([2]; 12.5% of supernatant, T + PHA 4012): 13113 COUNTS PER MINUTE | TCGF activity Δ % ([2]; 25% of supernatant): +105% | TCGF ACTIVITY (mean) ([2]; 25% of supernatant, T + PHA 7824): 16609 COUNTS PER MINUTE | TCGF activity Δ % ([2]; 50% of supernatant): +29% | TCGF ACTIVITY (mean) ([2]; 50% of supernatant, T + PHA 14086): 18167 COUNTS PER MINUTE | VARIATION of % THY 1.2 + cells ([3]; 0.1 μg/ml, 3 hours of incubation): +3.3 | % THY 1.2 + CELLS ([3]; 0.1 μg/ml, 3 hours of incubation, control 22.0): 25.3% | VARIATION of % THY 1.2 + cells ([3]; 1 μg/ml, 3 hours of incubation): +5.1 | % THY 1.2 + CELLS ([3]; 1 μg/ml, 3 hours of incubation, control 22.0): 27.1% | VARIATION of % THY 1.2 + cells ([3]; 10 μg/ml, 3 hours of incubation): +9.4 | % THY 1.2 + CELLS ([3]; 10 μg/ml, 3 hours of incubation, control 22.0): 31.4% | VARIATION of % THY 1.2 + cells ([3]; 10 μg/ml, 18 hours of incubation): +9.5 | % THY 1.2 + CELLS ([3]; 10 μg/ml, 18 hours of incubation, control 17.0): 26.5% | VARIATION of % THY 1.2 + cells ([3]; 100 μg/ml, 3 hours of incubation): +7.4 | % THY 1.2 + CELLS ([3]; 100 μg/ml, 3 hours of incubation, control 22.0): 29.4% | VARIATION of % THY 1.2 + cells ([3]; 100 μg/ml, 18 hours of incubation): +4.7 | % THY 1.2 + CELLS ([3]; 100 μg/ml, 18 hours of incubation, control 17.0): 21.7% | VARIATION of % THY 1.2 + cells ([3]; 200 μg/ml, 3 hours of incubation): +5.9 | % THY 1.2 + CELLS ([3]; 200 μg/ml, 3 hours of incubation, control 22.0): 27.9% | optimum concentration for Thy 1.2 induction ([3]; in vitro): 10 µg/mL | G2 + M % cells, difference from T + PHA [4]: +6.12 | Go-Gl % cells, difference from T + PHA [4]: -5.67 | S % cells, difference from T + PHA [4]: -1.15 | CELL PHASES G2 + M % CELLS ([4]; T + PHA 6.02): 12.14% | CELL PHASES S % CELLS ([4]; T + PHA 30.61): 29.46% | CELL PHASES Go-Gl % CELLS ([4]; T + PHA 63.36): 57.69% | TCGF activity Δ % [5, 7]: +17% | TCGF ACTIVITY c.p.m. ([5]; 1 mcg/ml, 3.125% of supernatant, T + PHA + IL-1 1696): 1984 c.p.m. | TCGF activity Δ % ([5]; 1 mcg/ml, 6.25% of supernatant): +145% | TCGF ACTIVITY c.p.m. ([5]; 1 mcg/ml, 6.25% of supernatant, T + PHA + IL-1 2817): 6893 c.p.m. | TCGF activity Δ % ([5]; 1 mcg/ml, 12.5% of supernatant): +259% | TCGF ACTIVITY c.p.m. ([5]; 1 mcg/ml, 12.5% of supernatant, T + PHA + IL-1 3663): 13147 c.p.m. | TCGF activity Δ % ([5]; 1 mcg/ml, 25% of supernatant): +209% | TCGF ACTIVITY c.p.m. ([5]; 1 mcg/ml, 25% of supernatant, T + PHA + IL-1 4812): 14862 c.p.m. | TCGF activity Δ % ([5]; 1 mcg/ml, 50% of supernatant): +149% | TCGF ACTIVITY c.p.m. ([5]; 1 mcg/ml, 50% of supernatant, T + PHA + IL-1 6297): 15654 c.p.m. | TCGF activity Δ % [5, 8]: +2% | TCGF ACTIVITY c.p.m. ([5]; 10 mcg/ml, 3.125% of supernatant, T + PHA + IL-1 1696): 1736 c.p.m. | TCGF activity Δ % [5, 9]: +125% | TCGF ACTIVITY c.p.m. ([5]; 10 mcg/ml, 6.25% of supernatant, T + PHA + IL-1 2817): 6342 c.p.m. | TCGF activity Δ % [5, 10]: +279% | TCGF ACTIVITY c.p.m. ([5]; 10 mcg/ml, 12.5% of supernatant, T + PHA + IL-1 3663): 13874 c.p.m. | TCGF activity Δ % ([5]; 10 mcg/ml, 25% of supernatant): +128% | TCGF ACTIVITY c.p.m. ([5]; 10 mcg/ml, 25% of supernatant, T + PHA + IL-1 4812): 10968 c.p.m. | TCGF activity Δ % ([5]; 10 mcg/ml, 50% of supernatant): +113% | TCGF ACTIVITY c.p.m. ([5]; 10 mcg/ml, 50% of supernatant, T + PHA + IL-1 6297): 13427 c.p.m. | PHA-induced human T lymphocyte activation (RNA synthesis) ([6]; 24 hours, 0.5% PHA): able to increase | RNA synthesis Δ % ([6]; peptide 0.0001 mcg/ml): -3% | RNA synthesis, 3H-uridine c.p.m. (mean) ([6]; peptide 0.0001 mcg/ml, 24 hours, 0.5% PHA): 3703 c.p.m. | RNA synthesis Δ % ([6]; peptide 0.001 mcg/ml): -2% | RNA synthesis, 3H-uridine c.p.m. (mean) ([6]; peptide 0.001 mcg/ml, 24 hours, 0.5% PHA): 3741 c.p.m. | RNA synthesis Δ % ([6]; peptide 0.01 mcg/ml): +11% | RNA synthesis, 3H-uridine c.p.m. (mean) ([6]; peptide 0.01 mcg/ml, 24 hours, 0.5% PHA): 4259 c.p.m. | RNA synthesis Δ % ([6]; peptide 0.1 mcg/ml): +18% | RNA synthesis, 3H-uridine c.p.m. (mean) ([6]; peptide 0.1 mcg/ml, 24 hours, 0.5% PHA): 4516 c.p.m. | RNA synthesis Δ % ([6]; peptide 1 mcg/ml): +6% | RNA synthesis, 3H-uridine c.p.m. (mean) ([6]; peptide 1 mcg/ml, 24 hours, 0.5% PHA): 4068 c.p.m. | RNA synthesis Δ % ([6]; peptide 10 mcg/ml): +9% | RNA synthesis, 3H-uridine c.p.m. (mean) ([6]; peptide 10 mcg/ml, 24 hours, 0.5% PHA): 4199 c.p.m.
